Experimental data reported in publication PMC6522510 (Nature Communications, 2019).
Structures can show the parent of a compound that is named as a salt. Where two headings read alike, the source gives them in different places.

What was measured:
Design in all cases: species or system AML cell lines (8); Primary HTS, single concentration about 10 uM, Cell Titer Glo viability; log10 luminescence, per cent inhibition relative to cycloheximide control
Conditions in all cases: 72 h, inhibitor
CMS = system: CMS
MV4-11 = system: MV4-11
MOLM-13 = system: MOLM-13
CMK = system: CMK
M07e = system: M07e
ML-2 = system: ML-2
CHRF288-11 = system: CHRF288-11
U937 = system: U937
[1] = relative to cycloheximide control, log10 luminescence
[2] = relative to cycloheximide control, log10 luminescence, CMS %inh, 10 µM
[3] = relative to cycloheximide control, log10 luminescence, MV4-11 %inh, 10 µM
[4] = relative to cycloheximide control, log10 luminescence, MOLM-13 %inh, 10 µM
[5] = relative to cycloheximide control, log10 luminescence, CMK %inh, 10 µM
[6] = relative to cycloheximide control, log10 luminescence, M07e %inh, 10 µM
[7] = relative to cycloheximide control, log10 luminescence, ML-2 %inh, 10 µM
[8] = relative to cycloheximide control, log10 luminescence, CHRF288-11 %inh, 10 µM
[9] = relative to cycloheximide control, log10 luminescence, U937 %inh, 10 µM

| Compound | CMS %inh (CMS; [1]) | MV4-11 %inh (MV4-11; [1]) | MOLM-13 %inh (MOLM-13; [1]) | CMK %inh (CMK; [1]) | M07e %inh (M07e; [1]) | ML-2 %inh (ML-2; [1]) | CHRF288-11 %inh (CHRF288-11; [1]) | U937 %inh (U937; [1]) | CMS %inh (CMS; [2]) | MV4-11 %inh (MV4-11; [3]) | MOLM-13 %inh (MOLM-13; [4]) | CMK %inh (CMK; [5]) | M07e %inh (M07e; [6]) | ML-2 %inh (ML-2; [7]) | CHRF288-11 %inh (CHRF288-11; [8]) | U937 %inh (U937; [9]) | also measured |
| --- | --- | --- | --- | --- | --- | --- | --- | --- | --- | --- | --- | --- | --- | --- | --- | --- | --- |
| NC[C@H]1CC[C@H](C(=O)O)CC1 [SJ000285898-4, TRANEXAMIC ACID] | -4.095% | -0.1986% | -3.616% | -3.012% | 0.2149% | 1.648% | -2.741% | -1.275% | – | – | – | – | – | – | – | – | – |
| CC(=O)OC/C=C(C)/C=C/C=C(C)/C=C/C1=C(C)CCCC1(C)C [SJ000285933-3, RETINYL ACETATE] | 2.535% | 3.526% | 0.103% | 13.65% | 2.591% | 2.843% | 13.53% | 8.926% | – | – | – | – | – | – | – | – | – |
| CCOC(=O)OC(C)OC(=O)[C@@H]1N2C(=O)[C@@H](NC(=O)[C@H](N)c3ccccc3)[C@H]2SC1(C)C (stereo partly shown) [SJ000285946-4, BACAMPICILLIN HYDROCHLORIDE] | -1.038% | -1.634% | 6.375% | -5.01% | -1.353% | -0.2443% | -3.08% | -1.553% | – | – | – | – | – | – | – | – | – |
| CN(C)CCC=C1c2ccccc2C=Cc2ccccc21 [SJ000285960-7, CYCLOBENZAPRINE HYDROCHLORIDE] | -1.125% | 2.11% | -2.604% | 3.38% | 2.233% | 3.717% | 66.65% | 7.437% | – | – | – | – | – | – | – | – | – |
| CCn1cc(C(=O)O)c(=O)c2cc(F)c(N3CCNCC3)nc21 [SJ000285962-4, ENOXACIN] | 4.313% | 40.28% | -2.8% | 15.64% | 7.045% | 32.21% | 7.607% | -0.8348% | – | – | – | – | – | – | – | – | – |
| CC(=O)/N=c1/sc(S(N)(=O)=O)nn1C [SJ000285971-4, METHAZOLAMIDE] | – | – | – | – | – | – | – | – | -3.008% | -0.9248% | 1.468% | -8.28% | -2.489% | 1.069% | -2.381% | -0.6609% | – |
| CC(=O)/N=c1/sc(S(N)(=O)=O)nn1C [SJ000285971-5, METHAZOLAMIDE] | – | – | – | – | – | – | – | – | -3.489% | -3.681% | 0.5424% | -2.598% | -1.211% | 3.001% | -3.176% | -1.329% | – |
| COc1ccc(OC)c(C(O)CNC(=O)CN)c1 (stereo not shown) [SJ000285975-4, MIDODRINE HYDROCHLORIDE] | -2.587% | 0.5881% | -0.9656% | -2.727% | 0.8303% | 3.423% | 5.586% | -2.394% | – | – | – | – | – | – | – | – | – |
| CC(=O)CCCCn1c(=O)c2c(ncn2C)n(C)c1=O [SJ000285992-7, PENTOXIFYLLINE] | -0.2539% | 4.085% | 0.7772% | 2.352% | -1.002% | -1.777% | -2.356% | -1.659% | – | – | – | – | – | – | – | – | – |
| CCC(=O)O[C@]1(C(=O)CCl)[C@@H](C)C[C@H]2[C@@H]3CCC4=CC(=O)C=C[C@]4(C)[C@@]3(F)[C@@H](O)C[C@@]21C [SJ000286006-4, CLOBETASOL PROPIONATE] | 4.642% | 4.125% | 8.361% | 12.78% | 3.893% | 4.272% | 12.55% | 16.72% | – | – | – | – | – | – | – | – | – |
| OCCN1CCN(CCCN2c3ccccc3Sc3ccc(Cl)cc32)CC1 [SJ000286016-7, PERPHENAZINE] | – | – | – | – | – | – | – | – | 1.171% | 1.352% | -1.496% | 1.286% | 0.915% | -0.4093% | -1.811% | -2.208% | – |
| OCCN1CCN(CCCN2c3ccccc3Sc3ccc(Cl)cc32)CC1 [SJ000286016-8, PERPHENAZINE] | – | – | – | – | – | – | – | – | 3.223% | 2.594% | 2.324% | 10.21% | 5.089% | 2.921% | 40.76% | 5.279% | – |
| OC(Cn1cncn1)(Cn1cncn1)c1ccc(F)cc1F [SJ000286024-3, FLUCONAZOLE] | -4.097% | 0.2312% | -1.868% | -0.02108% | -2.445% | -1.511% | -3.189% | 1.624% | – | – | – | – | – | – | – | – | – |
| CC[C@H]1OC(=O)[C@H](C)[C@@H](O[C@H]2C[C@@](C)(OC)[C@@H](O)[C@H](C)O2)[C@H](C)[C@@H](O[C@@H]2O[C@H](C)C[C@H](N(C)C)[C@H]2O)[C@](C)(O)C[C@@H](C)[C@@H]2N[C@@H](COCCOC)O[C@H]([C@H]2C)[C@]1(C)O [SJ000286040-4, DIRITHROMYCIN] | – | – | – | – | – | – | – | – | – | – | – | – | – | – | – | – | CMS %inh (CMS; 10 µM): -2.389%; MV4-11 %inh (MV4-11; 10 µM): -1.547%; MOLM-13 %inh (MOLM-13; 10 µM): 5.018%; CMK %inh (CMK; 10 µM): -6.058%; M07e %inh (M07e; 10 µM): -2.158%; ML-2 %inh (ML-2; 10 µM): 0.363%; CHRF288-11 %inh (CHRF288-11; 10 µM): 3.605%; U937 %inh (U937; 10 µM): 3.436% |
| CC[C@H]1OC(=O)[C@H](C)[C@@H](O[C@H]2C[C@@](C)(OC)[C@@H](O)[C@H](C)O2)[C@H](C)[C@@H](O[C@@H]2O[C@H](C)C[C@H](N(C)C)[C@H]2O)[C@](C)(O)C[C@@H](C)[C@@H]2N[C@@H](COCCOC)O[C@H]([C@H]2C)[C@]1(C)O [SJ000286040-5, DIRITHROMYCIN] | – | – | – | – | – | – | – | – | – | – | – | – | – | – | – | – | CMS %inh (CMS; 10 µM): -0.1114%; MV4-11 %inh (MV4-11; 10 µM): -3.548%; MOLM-13 %inh (MOLM-13; 10 µM): -2.496%; CMK %inh (CMK; 10 µM): -5.982%; M07e %inh (M07e; 10 µM): -2.366%; ML-2 %inh (ML-2; 10 µM): -0.7146%; CHRF288-11 %inh (CHRF288-11; 10 µM): 3.137%; U937 %inh (U937; 10 µM): -1.919% |
| CC[C@H]1OC(=O)[C@H](C)[C@@H](O[C@H]2C[C@@](C)(OC)[C@@H](O)[C@H](C)O2)[C@H](C)[C@@H](O[C@@H]2O[C@H](C)C[C@H](N(C)C)[C@H]2O)[C@](C)(OC)C[C@@H](C)C(=O)[C@H](C)[C@@H](O)[C@]1(C)O [SJ000286061-3, CLARITHROMYCIN] | – | – | – | – | – | – | – | – | -1.005% | 1.904% | 2.582% | 1.841% | 0.43% | 2.326% | -0.08051% | 1.585% | – |
| CC[C@H]1OC(=O)[C@H](C)[C@@H](O[C@H]2C[C@@](C)(OC)[C@@H](O)[C@H](C)O2)[C@H](C)[C@@H](O[C@@H]2O[C@H](C)C[C@H](N(C)C)[C@H]2O)[C@](C)(OC)C[C@@H](C)C(=O)[C@H](C)[C@@H](O)[C@]1(C)O [SJ000286061-4, CLARITHROMYCIN] | – | – | – | – | – | – | – | – | 4.035% | 1.784% | 0.6227% | -0.3654% | 4.017% | -1.428% | 4.27% | 1.816% | – |
